Like-named read-outs stand apart in the source and are kept apart here.
What was measured:
[1] = system: 49 kDa subunit and an unidentified subunit of complex I; test: Suppression of specific binding of [125I]AFP to SMP; design: species or system bovine; details: [125I]AFP 6 nM; competitor 60, 600 or 6,000 nM; SMP 1.0 mg of protein/mL
ND1 subunit [2] = biological target: T1, ND1 subunit (Bos taurus, UniProt P03887+P17694); details: ref [19]; cited from earlier work
[3] = biological target: T2, bovine heart mitochondrial complex I (NADH-ubiquinone oxidoreductase) (Bos taurus, UniProt P03887+P17694); test: NADH oxidase activity in SMP; assay type: biochemical
T2 sequence (P17694 34-463): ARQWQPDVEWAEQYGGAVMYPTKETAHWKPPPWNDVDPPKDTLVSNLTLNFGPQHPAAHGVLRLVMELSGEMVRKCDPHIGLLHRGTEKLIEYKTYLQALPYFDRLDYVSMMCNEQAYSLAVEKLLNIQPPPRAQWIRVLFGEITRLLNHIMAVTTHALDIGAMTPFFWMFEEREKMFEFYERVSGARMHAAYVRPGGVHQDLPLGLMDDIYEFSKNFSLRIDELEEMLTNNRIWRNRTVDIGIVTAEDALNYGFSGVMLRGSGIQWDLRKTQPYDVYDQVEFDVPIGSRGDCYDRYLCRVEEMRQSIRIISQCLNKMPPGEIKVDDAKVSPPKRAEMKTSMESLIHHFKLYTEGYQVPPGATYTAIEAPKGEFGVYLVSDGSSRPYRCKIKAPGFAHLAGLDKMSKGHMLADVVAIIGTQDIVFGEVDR
T2 sequence (P03887 whole entry): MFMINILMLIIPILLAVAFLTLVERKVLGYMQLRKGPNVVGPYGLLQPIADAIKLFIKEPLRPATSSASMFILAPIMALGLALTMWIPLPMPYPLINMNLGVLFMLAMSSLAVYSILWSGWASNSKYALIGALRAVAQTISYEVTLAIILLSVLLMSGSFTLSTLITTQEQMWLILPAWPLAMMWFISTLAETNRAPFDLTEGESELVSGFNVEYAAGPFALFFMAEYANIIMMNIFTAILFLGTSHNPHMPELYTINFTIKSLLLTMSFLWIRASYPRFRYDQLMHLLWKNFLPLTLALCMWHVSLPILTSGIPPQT
T2 sequence (P42026 38-216 partner): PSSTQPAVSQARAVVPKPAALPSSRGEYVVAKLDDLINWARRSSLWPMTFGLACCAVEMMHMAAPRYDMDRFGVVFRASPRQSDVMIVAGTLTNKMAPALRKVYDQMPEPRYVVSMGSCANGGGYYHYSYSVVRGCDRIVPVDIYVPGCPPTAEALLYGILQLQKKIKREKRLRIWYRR

ND1 subunit [4] = biological target: T1, ND1 subunit; test: Suppression of specific photoaffinity labeling of the ND1 subunit by [125I]TDA; assay type: binding, bovine; details: [125I]TDA 3 nM; SMP 0.3 mg of protein/mL
[5] = biological target: T2, bovine heart mitochondrial complex I (NADH-ubiquinone oxidoreductase); details: ref [27]; cited from earlier work
[6] = biological target: bovine heart mitochondrial complex I (ubiquinol-NAD+ oxidoreductase activity) (Bos taurus, UniProt P03887+P17694); details: ref [27]; cited from earlier work
Sequence of bovine heart mitochondrial complex I (ubiquinol-NAD+ oxidoreductase activity) (P17694 34-463): as the sequence (P17694 34-463) above
Sequence of bovine heart mitochondrial complex I (ubiquinol-NAD+ oxidoreductase activity) (P03887 whole entry): as the sequence (P03887 whole entry) above
Sequence of bovine heart mitochondrial complex I (ubiquinol-NAD+ oxidoreductase activity) (P42026 38-216 partner): as the sequence (P42026 38-216 partner) above

T1 sequence (P03887 whole entry): as the sequence (P03887 whole entry) above
T1 sequence (P17694 34-463): as the sequence (P17694 34-463) above
T1 sequence (P42026 38-216 partner): as the sequence (P42026 38-216 partner) above

SMILES	Suppression of specific labeling of the two subunits by [125I]AFP (in words) [1]	Suppression of specific binding of [125I]TDA to ND1 (in words) (ND1 subunit [2])	IC50 [3]	Suppression of specific binding of [125I]TDA to ND1 (in words) (ND1 subunit [4])	IC50 values, Forward electron transfer [5]	IC50 (R)/IC50 (F), ratio of IC50 (reverse)/IC50 (forward) [6]	IC50 values, Reverse electron transfer [6]
Cc1nn(C)c(Oc2ccccc2)c1C=NOCc1ccc(C(=O)OC(C)(C)C)cc1 [fenpyroximate]	suppressed the radiolabeling	completely suppress	–	–	–	–	–
CCCCCCCCCCC(O)C1CCC(C2CCC(C(O)CCCCCCCCCCC(O)CC3=CC(C)OC3=O)O2)O1 (stereo not drawn) [Bullatacin, bullatacin]	suppressed the radiolabeling	–	0.85 nM	suppressed the specific binding more efficiently than the piperazines	46 ± 5.2 pmol inhibitor/mg of protein	0.61	28 ± 4.4 pmol inhibitor/mg of protein
CC(C)(C)c1ccc(CSc2cnn(C(C)(C)C)c(=O)c2Cl)cc1 [pyridaben]	suppressed the radiolabeling	completely suppress	–	–	–	–	–
C=C(C)[C@H]1Cc2c(ccc3c2O[C@@H]2COc4cc(OC)c(OC)cc4[C@@H]2C3=O)O1 [rotenone]	suppressed the radiolabeling	–	–	–	–	–	–
C/C=C(\C)[C@H](O)[C@H](C)/C=C(C)/C=C/C/C(C)=C/Cc1nc(OC)c(OC)c(O)c1C [piericidin A]	–	completely suppress	–	–	81 ± 7.1 pmol inhibitor/mg of protein	0.59	48 ± 4.3 pmol inhibitor/mg of protein
